In brackets after ≈: the same amount, converted by molar mass.

Experiment [1] concerns Mycobacterium kansasii. Briefly: Antimycobacterial activity against Mycobacterium kansasii My 235/80 after 7 days by micromethod. It is filed as functional. As to conditions: My 235/80, 168 h.
Experiment [2] has as its system Mycobacterium tuberculosis. The experiment in a line: Antimycobacterial activity against Mycobacterium tuberculosis My 331/88 after 14 days by micromethod. It is filed as functional. Conditions: My 331/88, 336 h.
The subject of experiment [3] is Mycobacterium kansasii. The experiment in a line: Antimycobacterial activity against Mycobacterium kansasii 6509/96 after 21 days by micromethod. The experiment is classed as functional. As to conditions: 6509/96, 504 h.
The nature of experiment [4]: Cytotoxicity against CHOK1 cells assessed as viability after 24 hrs by MTT assay. It is filed as cell-based. As to conditions: Cricetulus griseus, CHO-K1, 24 h. In general terms: Tetrazolium assays rely on reduction of a dye to a coloured formazan, in cell work by metabolically active cells.
For experiment [5], the system named is Mycobacterium kansasii. Briefly: Antimycobacterial activity against Mycobacterium kansasii My 235/80 after 21 days by micromethod. As to conditions: My 235/80, 504 h. It is filed as functional.
The test system of experiment [6] is Mycobacterium avium. The experiment in a line: Antimycobacterial activity against Mycobacterium avium My 330/88 after 14 days by micromethod. The experiment is classed as functional. Conditions: My 330/88, 336 h.
Experiment [7] concerns Mycobacterium kansasii. The experiment in a line: Antimycobacterial activity against Mycobacterium kansasii 6509/96 after 14 days by micromethod. The experiment is classed as functional. As to conditions: 6509/96, 336 h.
Experiment [8] deals with Mycobacterium avium. The experiment in a line: Antimycobacterial activity against Mycobacterium avium My 330/88 after 21 days by micromethod. The experiment is classed as functional. As to conditions: My 330/88, 504 h.
For experiment [9], the system named is Mycobacterium kansasii. Briefly: Antimycobacterial activity against Mycobacterium kansasii 6509/96 after 7 days by micromethod. It is filed as functional. Conditions: 6509/96, 168 h.
In experiment [10] the test system is Mycobacterium tuberculosis. The experiment in a line: Antimycobacterial activity against Mycobacterium tuberculosis My 331/88 after 21 days by micromethod. It is filed as functional. Conditions: My 331/88, 504 h.
Experiment [11] deals with Mycobacterium kansasii. The experiment in a line: Antimycobacterial activity against Mycobacterium kansasii My 235/80 after 14 days by micromethod. It is filed as functional. Conditions: My 235/80, 336 h.

In the case of `O=[N+]([O-])c1ccc(CSc2nnn(Cc3ccccc3)n2)c([N+](=O)[O-])c1`, the minimal inhibitory concentration (MIC) (in general, the least concentration at which growth counts as inhibited) in [1] came out at 16 µM (≈ 5.96 µg/mL); in experiment [2] it was 4 µM (≈ 1.49 µg/mL); in experiment [3] it was 32 µM (≈ 11.9 µg/mL); in experiment [5] it was 62 µM (≈ 23.1 µg/mL); in [6], 32 µM (≈ 11.9 µg/mL); in [7], 16 µM (≈ 5.96 µg/mL). For the same compound, the minimal inhibitory concentration (MIC) in experiment [8] came to 62 µM (≈ 23.1 µg/mL); in experiment [9], 8 µM (≈ 2.98 µg/mL); in experiment [10] it was 4 µM (≈ 1.49 µg/mL); in experiment [11] it was 32 µM (≈ 11.9 µg/mL). In addition, the IC50 (as a rule, the point on the concentration scale where inhibition reaches its midpoint) in [4] came out at 21 µM.

Consider `COc1ccc(C[Se]c2nnnn2Cc2ccc([N+](=O)[O-])cc2[N+](=O)[O-])cc1`, for which the minimal inhibitory concentration (MIC) was 16 µM (≈ 7.19 µg/mL) in experiment [1]; 4 µM (≈ 1.8 µg/mL) in experiment [2]; 32 µM (≈ 14.4 µg/mL) in experiment [3]; 62 µM (≈ 27.9 µg/mL) in [5]; 125 µM (≈ 56.2 µg/mL) in experiment [6]; 16 µM (≈ 7.19 µg/mL) in [7]. For the same compound, the MIC was 125 µM (≈ 56.2 µg/mL) in experiment [8], 4 µM (≈ 1.8 µg/mL) in [9], 8 µM (≈ 3.59 µg/mL) in experiment [10] and 32 µM (≈ 14.4 µg/mL) in experiment [11].

Consider `Cn1nnnc1[Se]Cc1ccc([N+](=O)[O-])cc1[N+](=O)[O-]`, for which the minimum inhibitory concentration (MIC) in experiment [1] was found to be 62 µM (≈ 21.3 µg/mL); in [2] it was 32 µM (≈ 11 µg/mL); in experiment [3], 250 µM (≈ 85.8 µg/mL); in experiment [5], 125 µM (≈ 42.9 µg/mL); in experiment [6], 250 µM (≈ 85.8 µg/mL); in experiment [7], 125 µM (≈ 42.9 µg/mL). Also, the MIC in experiment [8] amounted to 250 µM (≈ 85.8 µg/mL); in [9], 62 µM (≈ 21.3 µg/mL); in [10], 32 µM (≈ 11 µg/mL); in experiment [11] it was 125 µM (≈ 42.9 µg/mL).

Regarding `COc1ccc(C[Se]c2nnn(Cc3cc([N+](=O)[O-])cc([N+](=O)[O-])c3)n2)cc1`, the minimal inhibitory concentration (MIC) was 8 µM (≈ 3.59 µg/mL) in [1]; 4 µM (≈ 1.8 µg/mL) in [2]; 32 µM (≈ 14.4 µg/mL) in experiment [3]; 16 µM (≈ 7.19 µg/mL) in experiment [5]; 16 µM (≈ 7.19 µg/mL) in experiment [6]; 32 µM (≈ 14.4 µg/mL) in experiment [7]. Further, the minimal inhibitory concentration (MIC) worked out at 32 µM (≈ 14.4 µg/mL) in experiment [8], 16 µM (≈ 7.19 µg/mL) in experiment [9], 8 µM (≈ 3.59 µg/mL) in experiment [10] and 16 µM (≈ 7.19 µg/mL) in experiment [11].

With `NNC(=O)c1ccncc1` [ISONIAZID], the MIC in [1] was determined as 250 µM (≈ 34.3 µg/mL); in experiment [2], 0.5 µM (≈ 0.0686 µg/mL); in [3], 4 µM (≈ 0.549 µg/mL); in [5], 250 µM (≈ 34.3 µg/mL); in experiment [6], 250 µM (≈ 34.3 µg/mL); in experiment [7], 4 µM (≈ 0.549 µg/mL). The MIC worked out at 250 µM (≈ 34.3 µg/mL) in [8], 4 µM (≈ 0.549 µg/mL) in experiment [9], 1 µM (≈ 0.137 µg/mL) in experiment [10] and 250 µM (≈ 34.3 µg/mL) in [11].

`O=[N+]([O-])c1ccc(CSc2nnn(Cc3ccc([N+](=O)[O-])cc3)n2)cc1`: the MIC in experiment [1], in experiment [2], in [3], in experiment [5], in [6] and in experiment [7] was 250 µM (≈ 93.1 µg/mL) in each case. The minimum inhibitory concentration (MIC) in experiment [8], in experiment [9], in experiment [10] and in [11] was 250 µM (≈ 93.1 µg/mL) in each case.

With `O=[N+]([O-])c1ccc(CSc2nnnn2Cc2ccccc2)c([N+](=O)[O-])c1`, the minimum inhibitory concentration (MIC) came to 8 µM (≈ 2.98 µg/mL) in experiment [1]; 8 µM (≈ 2.98 µg/mL) in experiment [2]; 62 µM (≈ 23.1 µg/mL) in [3]; 62 µM (≈ 23.1 µg/mL) in [5]; 250 µM (≈ 93.1 µg/mL) in [6]; 32 µM (≈ 11.9 µg/mL) in experiment [7]. Besides, the MIC was determined as 250 µM (≈ 93.1 µg/mL) in [8], 16 µM (≈ 5.96 µg/mL) in experiment [9], 8 µM (≈ 2.98 µg/mL) in experiment [10] and 32 µM (≈ 11.9 µg/mL) in [11].

On to `O=[N+]([O-])c1ccc(C[Se]c2nnnn2Cc2ccc([N+](=O)[O-])cc2)cc1`, for which the MIC turned out to be 62 µM (≈ 26 µg/mL) in [1]; 62 µM (≈ 26 µg/mL) in [2]; 62 µM (≈ 26 µg/mL) in experiment [3]; 125 µM (≈ 52.4 µg/mL) in experiment [5]; 250 µM (≈ 105 µg/mL) in experiment [6]; 62 µM (≈ 26 µg/mL) in [7]. Further, the MIC in experiment [8] turned out to be 250 µM (≈ 105 µg/mL); in experiment [9] it was 32 µM (≈ 13.4 µg/mL); in experiment [10], 125 µM (≈ 52.4 µg/mL); in experiment [11] it was 125 µM (≈ 52.4 µg/mL).

Take `O=[N+]([O-])c1ccc(Cn2nnc([Se]Cc3ccccc3)n2)c([N+](=O)[O-])c1`: the MIC in experiment [1] worked out at 8 µM (≈ 3.35 µg/mL); in [2] it was 1 µM (≈ 0.419 µg/mL); in [3], 32 µM (≈ 13.4 µg/mL); in experiment [5] it was 16 µM (≈ 6.71 µg/mL); in [6], 4 µM (≈ 1.68 µg/mL); in [7] it was 16 µM (≈ 6.71 µg/mL). Moreover, the minimal inhibitory concentration (MIC) in experiment [8] was determined as 8 µM (≈ 3.35 µg/mL); in [9] it was 8 µM (≈ 3.35 µg/mL); in experiment [10] it was 1 µM (≈ 0.419 µg/mL); in [11] it was 16 µM (≈ 6.71 µg/mL).

Turning to `Cn1nnc([Se]Cc2cc([N+](=O)[O-])cc([N+](=O)[O-])c2)n1`, the MIC in experiment [1] was 2 µM (≈ 0.686 µg/mL); in experiment [2], 1 µM (≈ 0.343 µg/mL); in [3] it was 4 µM (≈ 1.37 µg/mL); in [5], 8 µM (≈ 2.75 µg/mL); in experiment [6], 250 µM (≈ 85.8 µg/mL); in experiment [7] it was 4 µM (≈ 1.37 µg/mL). Besides, the MIC amounted to 250 µM (≈ 85.8 µg/mL) in [8], 2 µM (≈ 0.686 µg/mL) in experiment [9], 2 µM (≈ 0.686 µg/mL) in experiment [10] and 4 µM (≈ 1.37 µg/mL) in experiment [11].
